Tests used:
[1] = tested on: NTMT1; experiment: MALDI-MS methyltransferase activity assay, NTMT1; type: biochemical, human; conditions: 2 μM NTMT1, 10 μM peptide, 200 μM SAM, 25 mM Tris–HCl pH 7.5, 50 mM KCl, 37 °C, overnight
Protocol: (§1) A mixture (36 μL) of 2 μM enzyme (NTMT1 or NTMT2), 25 mM Tris–HCl pH 7.5, 50 mM KCl and 200 μM SAM was incubated at 37 °C for 5 min. 4 μL of 100 μM peptide substrate (final concentration 10 μM) was then added to initiate the reaction. The reaction was incubated overnight and then stopped with quenching solution (20 mM NH4H2PO4, 0.4% (v/v) TFA in 1:1 acetonitrile/water). Reaction mixtures were analyzed with an Applied Biosystems Voyager matrix-assisted laser desorption/ionization time-of-flight mass spectrometer. Processing of all spectra results in Data Explorer included application of a noise filter (correlation factor of 1.0) and a baseline correction. Areas of the monoisotopic peaks for all relevant species were combined to obtain a total area for each sample. The fraction of each methylation state was calculated by summing the areas of all the monoisotopic peaks for that state ([M + H]^+, [M + Na]^+, [M + K]^+, [M – H + 2Na]^+, [M – H + 2 K]^+, and [M – H + Na + K]^+) and then dividing by the total area.

[2] = biological target: T1, NTMT2 (Homo sapiens, UniProt Q5VVY1); experiment: MALDI-MS methyltransferase activity assay, NTMT2; type: biochemical; conditions: 2 μM NTMT2, 10 μM peptide, 200 μM SAM, 25 mM Tris–HCl pH 7.5, 50 mM KCl, 37 °C, overnight
T1 construct: DNA encoding human NTMT2 (residues 58–278) was amplified by PCR; SUMO (His8-SUMO of the pET28-MKH8SUMO vector, with TEV site) (N, cleaved yes); made in house; host or cells: Escherichia coli BL21 (DE3)
T1 sequence (Q5VVY1 58-278): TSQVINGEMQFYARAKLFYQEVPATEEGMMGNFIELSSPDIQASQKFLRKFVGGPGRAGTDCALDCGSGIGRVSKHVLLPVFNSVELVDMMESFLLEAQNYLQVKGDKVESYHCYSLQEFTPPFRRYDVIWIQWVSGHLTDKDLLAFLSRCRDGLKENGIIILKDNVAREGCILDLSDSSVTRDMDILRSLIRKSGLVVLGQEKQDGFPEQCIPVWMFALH
Protocol: as §1

[3] = tested on: NTMT2-N89G mutant; experiment: MALDI-MS methyltransferase activity assay, NTMT2-N89G mutant; type: biochemical, human; conditions: NTMT2-N89G under the same conditions (2 μM enzyme, 10 μM peptide, 200 μM SAM, pH 7.5, 37 °C, overnight)
Protocol: as §1

| Substance | Di-methylated fraction [1] [%] | Mono-methylated fraction [1] [%] | Trimethylated fraction [1] [%] | Unmethylated fraction [1] [%] | Di-methylated fraction [2] [%] | Mono-methylated fraction [2] [%] | Trimethylated fraction [2] [%] | Unmethylated fraction [2] [%] | Di-methylated fraction [3] [%] | Mono-methylated fraction [3] [%] | Trimethylated fraction [3] [%] | Unmethylated fraction [3] [%] |
| --- | --- | --- | --- | --- | --- | --- | --- | --- | --- | --- | --- | --- |
| APKRIA [synthetic XPKRIA hexapeptide substrate, X = A] | 0.00 | 0.00 | 100.00 | 0.00 | 0.00 | 32.17 | 0.00 | 67.83 | 26.21 | 71.86 | 1.93 | 0.00 |
| CPKRIA [synthetic XPKRIA hexapeptide substrate, X = C] | 44.61 | 27.87 | 0.00 | 27.51 | 0.00 | 25.20 | 0.00 | 74.80 | 0.00 | 63.38 | 0.00 | 36.62 |
| DPKRIA [synthetic XPKRIA hexapeptide substrate, X = D] | 0.00 | 9.37 | 0.00 | 90.64 | 0.00 | 0.00 | 0.00 | 100.00 | 0.00 | 0.00 | 0.00 | 100.00 |
| EPKRIA [synthetic XPKRIA hexapeptide substrate, X = E] | 0.00 | 10.70 | 0.00 | 89.30 | 0.00 | 0.00 | 0.00 | 100.00 | 0.00 | 0.00 | 0.00 | 100.00 |
| FPKRIA [synthetic XPKRIA hexapeptide substrate, X = F] | 97.34 | 0.00 | 2.66 | 0.00 | 0.00 | 50.22 | 0.00 | 49.78 | 0.00 | 100.00 | 0.00 | 0.00 |
| GPKRIA [synthetic XPKRIA hexapeptide substrate, X = G] | 0.00 | 0.00 | 100.00 | 0.00 | 20.14 | 15.31 | 27.94 | 36.61 | 19.61 | 6.64 | 60.27 | 13.49 |
| HPKRIA [synthetic XPKRIA hexapeptide substrate, X = H] | 100.00 | 0.00 | 0.00 | 0.00 | 0.00 | 39.05 | 0.00 | 60.95 | 1.61 | 98.39 | 0.00 | 0.00 |
| IPKRIA [synthetic XPKRIA hexapeptide substrate, X = I] | 20.10 | 43.34 | 0.00 | 36.56 | 0.00 | 0.00 | 0.00 | 100.00 | 0.00 | 5.08 | 0.00 | 94.92 |
| KPKRIA [synthetic XPKRIA hexapeptide substrate, X = K] | 96.14 | 0.00 | 3.86 | 0.00 | 0.00 | 5.19 | 0.00 | 94.81 | 0.00 | 20.40 | 0.00 | 79.60 |
| LPKRIA [synthetic XPKRIA hexapeptide substrate, X = L] | 70.78 | 26.28 | 2.94 | 0.00 | 0.00 | 3.16 | 0.00 | 96.84 | 0.00 | 18.14 | 0.00 | 81.86 |
| MPKRIA [synthetic XPKRIA hexapeptide substrate, X = M] | 91.26 | 0.00 | 8.74 | 0.00 | 0.00 | 41.45 | 0.00 | 58.55 | 0.00 | 100.00 | 0.00 | 0.00 |
| NPKRIA [synthetic XPKRIA hexapeptide substrate, X = N] | 100.00 | 0.00 | 0.00 | 0.00 | 0.00 | 0.00 | 0.00 | 100.00 | 0.00 | 21.58 | 0.00 | – |
| PPKRIA [synthetic XPKRIA hexapeptide substrate, X = P] | 100.00 | 0.00 | 0.00 | 0.00 | 10.19 | 38.00 | 0.00 | 51.81 | 4.45 | 65.75 | 0.00 | – |
| QPKRIA [synthetic XPKRIA hexapeptide substrate, X = Q] | 100.00 | 0.00 | 0.00 | 0.00 | 0.00 | 0.00 | 0.00 | 100.00 | 0.00 | 32.39 | 0.00 | 67.61 |
| RPKRIA [synthetic XPKRIA hexapeptide substrate, X = R] | 98.24 | 0.00 | 1.76 | 0.00 | 0.00 | 23.35 | 0.00 | 76.65 | 0.00 | 47.86 | 0.00 | 52.14 |
| TPKRIA [synthetic XPKRIA hexapeptide substrate, X = T] | 33.51 | 40.04 | 0.00 | 26.44 | 0.00 | 0.00 | 0.00 | 100.00 | 0.00 | 11.78 | 0.00 | 88.22 |
| VPKRIA [synthetic XPKRIA hexapeptide substrate, X = V] | 45.70 | 54.30 | 0.00 | 0.00 | 0.00 | 0.00 | 0.00 | 100.00 | 0.00 | 4.18 | 0.00 | 95.82 |
